Calls of active or inactive are those of the source. No cut-off for these calls is given here.

Holding throughout (format): functional
The species entered for test [1] is Homo sapiens. The test is described as follows: Stimulation of CD1d-restricted iNKTcell clone BGA89 assessed as gammaIFN release after 48 hrs by ELISA. In general terms: An ELISA detects its analyte on a solid surface through an enzyme-linked reagent.
The species entered for test [2] is Homo sapiens. The test is described as follows: Stimulation of CD1d-restricted iNKTcell clone BGA01 assessed as IL4 release after 48 hrs by ELISA.
Test [3] is filed under the species Homo sapiens. The test is described as follows: Stimulation of sulfatide-specific CD1a-restricted Tcell clone K34B9.1 assessed as gammaIFN release after 48 hrs by ELISA.
Test [4] is filed under the species Homo sapiens. In words: Stimulation of CD1d-restricted iNKTcell clone BGA89 assessed as IL4 release after 48 hrs by ELISA.
The species named for test [5] is Homo sapiens. The test is described as follows: Stimulation of CD1d-restricted iNKTcell clone BGA01 assessed as gammaIFN release after 48 hrs by ELISA.
The species entered for test [6] is Homo sapiens. The test is described as follows: Stimulation of sulfatide-specific CD1a-restricted Tcell clone K34B9.1 assessed as IL4 release after 48 hrs by ELISA.

For `CCCCCCCCCCCCC/C=C/[C@@H](O)[C@H](CO[C@H]1O[C@H](CO)[C@H](O)[C@H](OS(=O)(=O)O)[C@H]1O)NC(=O)CCCCCCCCCCCCCCCCCCCCC`, the result in the test listed under Homo sapiens [1], in the test listed under Homo sapiens [2], in the test filed under Homo sapiens [4] and in the test filed under Homo sapiens [5] was Active. The outcome in the test listed under Homo sapiens [3] and in the test listed under Homo sapiens [6] was inactive.

The values above are taken from ChEMBL document CHEMBL1149609, “Synthesis and evaluation of human T cell stimulating activity of an alpha-sulfatide analogue” (Bioorg Med Chem, 2007).
